Test results published in the NIST ThermoML archive (doi:10.1016/j.tca.2019.01.031).

Columns and labels:
[1] = xn = mol fraction of the nth substance listed; conditions: 298 K, 101.33 kPa, Crystal, X-ray diffraction
[2] = molar heat capacity at constant pressure; xn = mol fraction of the nth substance listed; conditions: 101.33 kPa, Crystal, DSC
[3] = molar heat capacity at constant pressure; conditions: 101.33 kPa, Crystal, DSC
[4] = 298 K; 101.33 kPa; Crystal; X-ray diffraction

O=P([O-])([O-])[O-].O=P([O-])([O-])[O-].[Sr+2].[Th+4] [strontium thorium(IV) phosphate] + O=P([O-])([O-])[O-].[La+3]
[1]
Conditions	mass density [kg/m3]
x2 = 0	5619
x2 = 0.333	5505
x2 = 0.571	5395
x2 = 0.75	5295
x2 = 0.889	5203

molar heat capacity at constant pressure [J/K/mol], [2]
Conditions	x2 = 0	x2 = 0.333	x2 = 0.571	x2 = 0.75	x2 = 0.889
298 K	177.6	172.2	148.6	130.3	117
300 K	178.6	172.9	149.2	130.6	117.4
350 K	197.2	186.9	158.5	139.5	127.5
400 K	210.2	197.9	166.3	146.8	135.2
450 K	220	207.2	173.1	153.1	141.5
500 K	227.8	215.5	179.1	158.8	147.1
550 K	234.2	223.2	184.8	164	152.1
600 K	239.6	230.4	190.3	169.1	156.8
650 K	244.4	237.2	195.5	173.9	161.1
700 K	248.8	243.9	200.6	178.6	165.3
750 K	252.8	250.2	205.6	183.3	169.3
800 K	256.6	256.6	210.6	187.8	173.2

[O-2].[O-2].[Zr+4] [zirconium oxide]
[3]
Conditions	molar heat capacity at constant pressure [J/K/mol]
313 K	56.9
323 K	57.7
333 K	58.6
343 K	59.3
353 K	60
363 K	60.7
373 K	61.4
383 K	61.9
393 K	62.5
403 K	63
413 K	63.6
423 K	64
433 K	64.5
443 K	64.9
453 K	65.4
463 K	65.8
473 K	66.2
483 K	66.6
493 K	66.9
503 K	67.3
513 K	67.6
523 K	68
533 K	68.3
543 K	68.6
553 K	68.9
563 K	69.2
573 K	69.5
583 K	69.8
593 K	70.1
603 K	70.4
613 K	70.6
623 K	70.9
633 K	71.2
643 K	71.4
653 K	71.7
663 K	71.9
673 K	72.2
683 K	72.4
693 K	72.7
703 K	72.9
713 K	73.1
723 K	73.4
733 K	73.6
743 K	73.8
753 K	74.1
763 K	74.3
773 K	74.5
783 K	74.7
793 K	74.9
800 K	75.1

O=P([O-])([O-])[O-].[La+3] [lanthanum orthophosphate]
[3]
Conditions	molar heat capacity at constant pressure [J/K/mol]
298 K	97.5
300 K	98
350 K	107.3
400 K	114.3
450 K	120
500 K	124.9
550 K	129.3
600 K	133.2
650 K	136.9
700 K	140.4
750 K	143.8
800 K	147.1

Conditions	mass density [kg/m3]
[4]	5063

O=P([O-])([O-])[O-].O=P([O-])([O-])[O-].[Sr+2].[Th+4] [strontium thorium(IV) phosphate]
[3]
Conditions	molar heat capacity at constant pressure [J/K/mol]
298 K	177.6
300 K	178.6
350 K	197.2
400 K	210.2
450 K	220
500 K	227.8
550 K	234.2
600 K	239.6
650 K	244.4
700 K	248.8
750 K	252.8
800 K	256.6

Conditions	mass density [kg/m3]
[4]	5619

O=P([O-])([O-])[O-].[La+3] [lanthanum orthophosphate] + O=P([O-])([O-])[O-].O=P([O-])([O-])[O-].[Sr+2].[Th+4]
Conditions	mass density [kg/m3]
[1], x1 = 1	5063

[2], x1 = 1
Conditions	molar heat capacity at constant pressure [J/K/mol]
298 K	97.5
300 K	98
350 K	107.3
400 K	114.3
450 K	120
500 K	124.9
550 K	129.3
600 K	133.2
650 K	136.9
700 K	140.4
750 K	143.8
800 K	147.1
